Tested on: HT-29
Assay: Compound was tested for biological activity against human colon carcinoma cell line HT-29/219
Assay type: functional, cell-based

COc1cc(NS(C)(=O)=O)ccc1Nc1c2ccccc2nc2c(C(=O)NC34C[C@H]5C[C@@H](C3)C[C@@H](C4)C5)cccc12
IC50: 9.8 µM

Nc1c2ccccc2nc2c(C(=O)NC3CCCCCCC3)cccc12
IC50: 5.2 µM

Nc1c2ccccc2nc2c(C(=O)NC34C[C@H]5C[C@@H](C3)C[C@@H](C4)C5)cccc12
IC50: 0.57 µM

COc1cc(NS(C)(=O)=O)ccc1Nc1c2ccccc2nc2c(C(=O)NC3CCCCCCC3)cccc12
IC50: 5.8 µM

CN(C)CCNC(=O)c1cccc2c(N)c3ccccc3nc12
IC50: 0.14 µM

Nc1c2ccccc2nc2c(C(=O)NC3CC3)cccc12
IC50: 5.8 µM

Nc1c2ccccc2nc2c(C(=O)NC3CCCCC3)cccc12
IC50: 5.6 µM

COc1cc(NS(C)(=O)=O)ccc1Nc1c2ccccc2nc2c(C(=O)NC3CCCCC3)cccc12
IC50: 4.7 µM

COc1cc(NS(C)(=O)=O)ccc1Nc1c2ccccc2nc2c(C(=O)NC3CCCCCCCCCCC3)cccc12
IC50: 3.3 µM

COc1cc(NS(C)(=O)=O)ccc1Nc1c2ccccc2nc2c(C(=O)NC3CC3)cccc12
IC50: 3.6 µM

Nc1c2ccccc2nc2c(C(=O)NC3CCCCCCCCCCC3)cccc12
IC50: 7.7 µM

COc1cc(NS(C)(=O)=O)ccc1Nc1c2ccccc2nc2c(C(=O)NCCN(C)C)cccc12
IC50: 0.061 µM

— ChEMBL document CHEMBL1129134, “DNA threading agents: effect of sidechain bulk on DNA binding and cytotoxicity of 9-anilinoacridine-4-carboxamides” (Bioorg Med Chem Lett, 1996)
